Source: patent US20130274294A1, “4-(Hetero)Aryl-Ethynyl-Octahydro-Indole-1-Esters” (priority 2010, published 2013)
Values after ≈ are worked out from the molar mass of the structure shown.

Legend:
[1] = Solubility in Cl-free phosphate buffer (0.067 M), pH 6.8; type: physicochemical; conditions: pH 6.8, aqueous buffer
Method: Solubility of compounds of the invention was determined in the following buffer: Cl-free phosphate buffer (0.067 M) is made from KH2PO4 solution and titrated to pH 6.8 with NaOH. The table below represents solubility values of compounds of the invention in the above buffer.

human mGluR5a receptors = biological target: T1, human mGluR5a receptors (Homo sapiens, UniProt P41594); assay: Inhibition of glutamate-induced elevation of intracellular calcium concentration in L(tk-) cells expressing human mGluR5a receptors; type: cell-based; conditions: agonist glutamate
T1 construct: expressed in transfected cells; host or cells: L(tk-) cells (mouse fibroblast line)
T1 sequence (P41594 21-1180 isoform P41594-2 limits assumed): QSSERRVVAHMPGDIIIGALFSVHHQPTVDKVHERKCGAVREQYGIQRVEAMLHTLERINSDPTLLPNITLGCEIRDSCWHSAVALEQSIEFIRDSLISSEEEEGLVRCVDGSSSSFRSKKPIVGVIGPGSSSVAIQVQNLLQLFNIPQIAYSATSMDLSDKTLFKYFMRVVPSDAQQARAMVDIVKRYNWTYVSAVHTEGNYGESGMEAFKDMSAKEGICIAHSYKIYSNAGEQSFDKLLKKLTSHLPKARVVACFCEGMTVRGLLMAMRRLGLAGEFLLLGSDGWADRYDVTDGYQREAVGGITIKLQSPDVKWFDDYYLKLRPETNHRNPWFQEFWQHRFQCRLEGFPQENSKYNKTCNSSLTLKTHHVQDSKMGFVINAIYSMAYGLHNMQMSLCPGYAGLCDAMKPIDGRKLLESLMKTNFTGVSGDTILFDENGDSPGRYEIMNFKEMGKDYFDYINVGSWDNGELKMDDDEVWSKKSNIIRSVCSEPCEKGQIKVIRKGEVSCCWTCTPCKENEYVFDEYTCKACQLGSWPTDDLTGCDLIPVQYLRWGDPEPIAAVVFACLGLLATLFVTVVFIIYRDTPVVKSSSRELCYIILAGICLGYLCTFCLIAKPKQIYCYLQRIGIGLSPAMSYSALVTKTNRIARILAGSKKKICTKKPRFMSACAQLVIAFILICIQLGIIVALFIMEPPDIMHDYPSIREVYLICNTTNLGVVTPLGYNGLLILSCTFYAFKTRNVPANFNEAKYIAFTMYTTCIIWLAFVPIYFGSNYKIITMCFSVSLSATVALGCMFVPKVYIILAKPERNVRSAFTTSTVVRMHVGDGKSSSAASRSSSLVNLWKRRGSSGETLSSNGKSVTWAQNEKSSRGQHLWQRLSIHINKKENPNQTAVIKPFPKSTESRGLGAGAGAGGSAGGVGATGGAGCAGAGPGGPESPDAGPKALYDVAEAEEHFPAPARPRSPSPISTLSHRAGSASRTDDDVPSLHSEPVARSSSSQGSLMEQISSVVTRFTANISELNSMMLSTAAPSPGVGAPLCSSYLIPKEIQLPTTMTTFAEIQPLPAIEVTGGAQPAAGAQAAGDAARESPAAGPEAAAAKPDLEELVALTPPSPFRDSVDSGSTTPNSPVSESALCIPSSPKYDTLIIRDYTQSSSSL
Excerpt: This can be determined in vitro, for example, at recombinant human mGluR5, using different procedures like, for example, measurement of the inhibition of the agonist induced elevation of intracellular Ca^2+ concentration in accordance with L. P. Daggett et al., Neuropharm. Vol. 34, pages 871-886 (1995), P. J. Flor et al., J. Neurochem. Vol. 67, pages 58-63 (1996) or by determination to what extent the agonist induced elevation of the inositol phosphate turnover is inhibited as described by T. Knoepfel et al., Eur. J. Pharmacol. Vol. 288, pages 389-392 (1994), L. P. Daggett et al., Neuropharm. Vol. 67, pages 58-63 (1996) and references cited therein. Isolation and expression of human mGluR subtypes are described in U.S. Pat. No. 5,521,297.
Activity of compounds of the present invention was examined by determination to what extent the glutamate-induced elevation of the intracellular calcium concentration in L(tk-) cells expressing human mGluR5a receptors (see L. P. Daggett et al., Neuropharm. Vol. 34, pages 871-886, 1995) is inhibited by utilizing methods as described e.g. by L. P. Daggett et al., Neuropharm. Vol. 34, pages 871-886 (1995) and P. J. Flor et al., J. Neurochem. Vol. 67, pages 58-63 (1996).
The table below represents IC50 values of the inhibition of the glutamate-induced elevation of the intracellular calcium concentration.

COC(=O)N1CC[C@@H]2[C@H]1CCC[C@@]2(O)C#Cc1cccc(Cl)c1 [Example 1, (3aR,4S,7aR)-methyl 4-((3-chlorophenyl)ethynyl)-4-hydroxyoctahydro-1H-indole-1-carboxylate]
solubility [1]: 103 µg/mL (≈ 309 µM)
IC50 (human mGluR5a receptors): 16 nM

COC(=O)N1CC[C@@H]2[C@H]1CCC[C@@]2(O)C#Cc1cncc(C)c1 [Example 2, (3aR,4S,7aR)-methyl 4-hydroxy-4-((5-methylpyridin-3-yl)ethynyl)octahydro-1H-indole-1-carboxylate]
solubility [1]: > 300 µg/mL
IC50 (human mGluR5a receptors): 1100 nM

COC(=O)N1CC[C@@H]2[C@H]1CCC[C@@]2(O)C#Cc1ccnc(C)c1 [Example 3, (3aR,4S,7aR)-methyl 4-hydroxy-4-((2-methylpyridin-4-yl)ethynyl)octahydro-1H-indole-1-carboxylate]
solubility [1]: > 300 µg/mL
IC50 (human mGluR5a receptors): 530 nM

COC(=O)N1CC[C@@H]2[C@H]1CCC[C@@]2(O)C#Cc1cccc(C)n1 [Example 4, (3aR,4S,7aR)-methyl 4-hydroxy-4-((6-methylpyridin-2-yl)ethynyl)octahydro-1H-indole-1-carboxylate]
IC50 (human mGluR5a receptors): 1430 nM

COC(=O)N1CC[C@@H]2[C@H]1CCC[C@@]2(O)C#Cc1ccnc(Cl)c1 [Example 5, (3aR,4S,7aR)-methyl 4-((2-chloropyridin-4-yl)ethynyl)-4-hydroxyoctahydro-1H-indole-1-carboxylate]
solubility [1]: 175 µg/mL (≈ 523 µM)
IC50 (human mGluR5a receptors): 146 nM

COC(=O)N1CC[C@@H]2[C@H]1CCC[C@@]2(O)C#Cc1cc(C)ccn1 [Example 6, (3aR,4S,7aR)-methyl 4-hydroxy-4-((4-methylpyridin-2-yl)ethynyl)octahydro-1H-indole-1-carboxylate]
solubility [1]: 153 µg/mL (≈ 487 µM)
IC50 (human mGluR5a receptors): 740 nM

COC(=O)N1CC[C@@H]2[C@H]1CCC[C@@]2(O)C#Cc1csc(C)n1 [Example 7, (3aR,4S,7aR)-methyl 4-hydroxy-4-((2-methylthiazol-4-yl)ethynyl)octahydro-1H-indole-1-carboxylate]
solubility [1]: > 300 µg/mL
IC50 (human mGluR5a receptors): 470 nM

COC(=O)N1CC[C@@H]2[C@H]1CCC[C@@]2(N)C#Cc1cccc(C)c1 [Example 8, (3aR,4S,7aR)-methyl 4-amino-4-(m-tolylethynyl)octahydro-1H-indole-1-carboxylate]
solubility [1]: > 300 µg/mL
IC50 (human mGluR5a receptors): 330 nM

CCOC(=O)N1CC[C@@H]2[C@H]1CCC[C@@]2(N)C#Cc1cccc(C)c1 [Example 9, (3aR,4S,7aR)-ethyl 4-amino-4-(m-tolylethynyl)octahydro-1H-indole-1-carboxylate]
solubility [1]: > 300 µg/mL
IC50 (human mGluR5a receptors): 710 nM
